Experimental data reported in article PMC9964390, “Design, Synthesis and Phenotypic Profiling of Simplified Gedatolisib Analogues” (Pharmaceuticals, 2023).
≈ marks a conversion by molar mass, not a printed value. Where two headings read alike, the source gives them in different places.

Legend:
[1] = test system: PC-3, MCF7, K562, CCRF-CEM and MOLT-4; experiment: MTT single-concentration cytotoxicity screening; format: cell-based, human; details: single concentration 30 μM; reduction in cell viability ≥ 50% selected for CC50
Description: In a first approach, the assay was validated with two standard drugs: gedatolisib and GSK-1059615.
After understanding the response profile of the selected cell lines to the treatment with gedatolisib and GSK-1059615, we investigated the cytotoxic activity of compounds 5a-f at a single concentration (30 μM). […] During the experiments, compounds 5a (LASSBio-2250), 5b (LASSBio-2251) and 9 (CAS-942789959) were insoluble and precipitated on the culture medium. Therefore, they were evaluated also at the screening concentration of 1 μM.
Cell viability was assessed by the MTT assay. The lines selected for this study were plated according to their respective densities, which ranged from 3 × 10^4 to 4 × 10^4 cells per well. Subsequently, they were treated with test compounds at different concentrations (0.00003 μM to 150 μM), gedatolisib and GSK-1059615.
After incubation, the plates are centrifuged at 440× g for 10 min. Then, 110 μL of the supernatant was withdrawn and each well received 10μL of the MTT solution. The plate was again incubated in an oven at 37 °C and 5% CO2 for 3 to 4 h. At the end of the incubation time, 100 μL of SDS-HCL detergent was added to solubilize the formazan crystals. The plate was shaken on an automatic overnight shaker and then read at a wavelength of 595 nm on the Molecular Devices Spectramax M5 plate reader.

[2] = pH-dependent aqueous solubility (UV spectrophotometry); format: physicochemical; details: aqueous buffer, thermodynamic from solid, 37 °C
Description: A stock solution of the target compound was prepared by dissolving 1 mg in methanol, and the wavelength of greatest absorption of each compound was obtained by scanning between wavelengths from 200 nm to 500 nm. Six dilutions were prepared from the stock solution and the absorbance reading in the UV spectrophotometer (SpectraMax M5, Molecular Devices, USA). The calibration curve with linear regression was created with the values obtained, and the solubility test was measured by correlating the concentration with the absorbance obtained by ultraviolet. Each compound was added in excess at phosphate buffer solution pH 5.8 and 7.4 to obtain a supersaturated solution that was kept under stirring for 4 h at 37 °C and then was filtered through a 0.45 µm filter for reading at the corresponding wavelengths. The solubility was determined through the equation of the straight line obtained by the linear regression of the calibration curve of the compounds [24, 25].

[3] = Microsomal metabolic stability; format: in vitro ADME; details: for Metabolization Rates: 10 μM; for half-life at 10 μM / recovery at 10 µM: rat
Description: To investigate the metabolic stability of LASSBio-2252 (5f), the compound was incubated with rat liver microsomes in the presence and in the absence of the NADPH-generating system. Metabolization rate, half-life (t1/2) and apparent intrinsic clearance (Clapp) were calculated.
The metabolic stability of compound 5f (LASSBio-2252) was studied as previously described, and 1 mg/mL of […] rat microsomes was incubated with compound […] (10 μM) in the presence and in the absence of the cofactor (i.e., NADPH generating system). After mixing and incubation at 37 °C in a shaking water bath for 1 h, 500 µL cold acetonitrile containing the internal standard was added to terminate the reaction at different time intervals (0, 15, 30, 45 and 60 min). After mixing and centrifugation at 10,500× g for 15 min at 4 °C, the supernatant was filtered and then was injected into the HPLC system using a mixture of methanol: water acidified (0.1% formic acid, pH 3.0) (50:50, v/v) as the mobile phase at a flow rate of 1.0 mL/min. After analysing the results, the pharmacokinetic parameters were calculated as microsomal half-life (t1/2) and apparent intrinsic clearance (Clapp).

[4] = test system: human peripheral blood mononuclear cells (PBMCs); experiment: PBMC viability assay (72 h MTT); format: cell-based; details: highest concentration studied 50 μM
Description: Donor blood was collected and EDTA (ethylenediamine tetraacetic acid) was added to the sterile laminar flow in a 1:20 ratio. In a 15 mL falcon tube, 4.5 mL of Ficoll gradient was added, and then 9 mL of blood was added over the gradient in a 1:2 ratio. The tubes were centrifuged for 40 min at a speed of 750× g with an acceleration of 2 and a brake of 0. The ring of mononuclear cells formed was collected and added to a new tube.
Tubes with PBMCs were centrifuged in an incomplete RPMI medium for 10 min at 580× g with an acceleration of 8 and a brake of 9. The supernatant was discarded, and the cells were resuspended in 1 mL of RPMI medium supplemented with 20% […]. PBMCs were added to 96-well plates at a concentration of 1 × 10^5 cells per well. […]
After incubation, each well received 20 µL of MTT (5 mg/mL), followed by incubation for 4 h in the CO2 oven and centrifugation for 12 min at 1200× g. The supernatant from each well was taken, and 100 µL of isopropyl alcohol was added to solubilize the formazan crystals. The absorbance of the plates was measured at 570 nm in the Flex Station equipment.

[5] = rat liver microsomes, NADPH-generating system absent
[6] = rat liver microsomes, NADPH-generating system present

Row | SMILES | cytotoxic effect on leukemia cell lines at single concentration [1] | solubility at 4 h ([2]; phosphate buffer pH 5.8 (duodenum), read-out: Solubility pH 5.8) [µM] | solubility at 4 h ([2]; phosphate buffer pH 7.4 (plasma), read-out: Solubility pH 7.4) [µM] | Elimination Rate Constant (k) [3, 5] | Metabolization Rates [3, 5] [%] | Elimination Rate Constant (k) [3, 6] | Metabolization Rates [3, 6] [%] | half-life at 10 μM ([3]; liver microsomes) [h] | recovery at 10 µM ([3]; liver microsomes, NADPH-generating system absent) [%] | recovery at 10 µM ([3]; liver microsomes, NADPH-generating system present) [%] | half-life at 10 μM [3, 5] [h] | half-life at 10 μM [3, 6] [h] | Emax (reduction of viability of PBMCs) [4] [%]
1 | c1ccc(N2CCN(c3nc(N4CCCNCC4)nc(N4CCOCC4)n3)CC2)cc1 [5f, 4-(4-(1,4-Diazepan-1-yl)-6-(4-phenylpiperazin-1-yl)-1,3,5-triazin-2-yl)morpholine] | cytotoxic effect | 39.3 (≈ 16.7 µg/mL) | 42.4 (≈ 18 µg/mL) | 0.0017 | 9.09 | 0.0015 | 2.90 | > 6 | 100 | 101 | 6.79 | 7.7 | –
2 | CN(C)C1CCN(C(=O)c2ccc(NC(=O)Nc3ccc(-c4nc(N5CCOCC5)nc(N5CCOCC5)n4)cc3)cc2)CC1 [Gedatolisib, gedatolisib] | – | – | – | – | – | – | – | – | – | – | – | – | 33
